Source: patent US20220409535A1, “BIOLOGICAL AGENT-EXOSOME COMPOSITIONS AND USES THEREOF” (The University of North Carolina at Chapel Hill, priority 2016, published 2022)
≈ marks a conversion by molar mass, not a printed value.

Legend:
sigma receptor = assay: Receptor competitive inhibition by free anisamide; assay type: cell-based, murine; details: 3LL-M27 cells, one hour
Experimental: Receptor Competitive Inhibition. To determine whether AA-vectorized exosomes to sigma receptor were accumulated in cancer cells via receptor-mediated endocytosis, a receptor competitive inhibition study was carried out. For this purpose, first a lipophilic fluorescent dye, DiL, was incorporated into exosome membranes. Briefly, the supernatant of RAW 264.7 macrophage conditioned media free of cells and cellular debris was filtered with a 0.22 μm PES filter and incubated with DiL dye (4 μM) at 37° C. for 20 min. Following a 20-minute incubation, ExoQuick-TC™ exosome precipitation solution was added to the filtered supernatant, the mixture was vortexed, and incubated overnight at 4° C. Then, the mixture was vortexed again and subsequently centrifuged at 1500×g for 30 minute to pellet exosomes. The supernatant was discarded and the exosome pellet was re-suspended in PBS. Freshly-prepared fluorescently labeled exosomes or exosomes stored at −20° C. were used for all experiments.
Next, 3LL-M27 cells were seeded overnight at 50,000 cells/well in a 96-well plate. […] The fluorescence levels in cell suspensions were measured by a Shimadzu RF5000 fluorescent spectrophotometer, and adjusted for protein content analyzed by BCA Assay using the Pierce BCA Protein Assay Kit (Thermo Fisher Scientific, Waltham, Mass., USA). […]

MDCK wt = assay: In vitro cytotoxicity (MTT), MDCK wt; assay type: cell-based, canine; details: Canis lupus familiaris, 48 hours
Experimental: (§1) Briefly, cancer cells (MDCKMDR1, MDCKwt, and 3LL-M27) were seeded at 5,000 cells/well in 100 μL of media in 96-well plates overnight. […] Following the incubation, the cells were washed and incubated with MTT reagent as described in Batrakova et al., Mol. Pharm. 3:113 (2006) Epub 2006/04/04. The cytotoxic activity of PTX was then evaluated using a standard MTT assay (Ferrari et al., J. Immunol. Meth. 131:165 (1990)). The absorbance at 570 nm was measured using a Shimadzu RF5000 fluorescent spectrophotometer. The survival values were determined in relation to control cells cultured in drug-free media. All experiments were repeated at least three times. SEM values were less than 10%.

3LL-M27 = assay: In vitro cytotoxicity (MTT), 3LL-M27; assay type: cell-based, murine; details: Mus musculus; 3LL-M27, 48 hours
Experimental: as §1

MDCK MDR1 = assay: In vitro cytotoxicity (MTT), MDCK MDR1; assay type: cell-based, canine; details: Canis lupus familiaris; MDCK MDR1, 48 hours
Experimental: as §1

Row | Structure (SMILES) | competitive inhibition of uptake by free AA (sigma receptor) | IC50 (MDCK wt) | IC50 (3LL-M27) | IC50 (MDCK MDR1)
1 | COc1ccc(C(N)=O)cc1 [free AA, anisamide] | not able completely inhibit exosome uptake |  |  | 
2 | CC(=O)O[C@H]1C(=O)[C@@]2(C)[C@H]([C@H](OC(=O)c3ccccc3)[C@]3(O)C[C@H](OC(=O)[C@H](O)[C@@H](NC(=O)c4ccccc4)c4ccccc4)C(C)=C1C3(C)C)[C@]1(OC(C)=O)CO[C@@H]1C[C@@H]2O [PTX, paclitaxel] |  | 0.429 ± 0.0634 µg/mL (≈ 0.502 µM) | 0.126 ± 0.0313 µg/mL (≈ 0.148 µM) | > 10 µg/mL
